# Reference: patent US8299077B2 (Roche Palo Alto LLC, priority 2009, dated 2012)
# Tested on: B cell receptor-mediated activation of B cells in human blood (CD69 expression)
# Assay: Inhibition of B cell activation in whole blood measured by CD69 expression
# Assay type: cell-based
# Conditions: anti-IgM stimulation, 20 h, 50% decrease of CD69-positive cells that are also CD20-positive
# Method: Inhibition of B Cell Activation in Whole Blood Measured by CD69 Expression
# A procedure to test the ability of Btk inhibitors to suppress B cell receptor-mediated activation of B cells in human blood is as follows:
# Human whole blood (HWB) is obtained from healthy volunteers, with the following restrictions: 24 hr drug-free, non-smokers. Blood is collected by venipuncture into Vacutainer tubes anticoagulated with sodium heparin. Test compounds are diluted to ten times the desired starting drug concentration in PBS (20×), followed by three-fold serial dilutions in 10% DMSO in PBS to produce a nine point dose-response curve. 5.5 μl of each compound dilution is added in duplicate to a 2 ml 96-well V bottom plate (Analytical Sales and Services, #59623-23); 5.5 μl of 10% DMSO in PBS is added to control and no-stimulus wells. HWB (100 μl) is added to each well, and after mixing the plates are incubated at 37 C, 5% CO2, 100% humidity for 30 minutes. Goat F(ab′)2 anti-human IgM (Southern Biotech, #2022-14) (10 μl of a 500 μg/ml solution, 50 μg/ml final concentration) is added to each well (except the no-stimulus wells) with mixing and the plates are incubated for an additional 20 hours.
# At the end of the 20 hour incubation, samples are incubated with florescent-probe-labeled anti-bodies (15 μl PE Mouse anti-Human CD20, BD Pharmingen, #555623, and/or 20 ul APC Mouse anti-Human CD69, BD Pharmingen #555533) for 30 minutes, at 37 C, 5% CO2, 100% humidity. Included are induced control, unstained and single stains for compensation adjustments and initial voltage settings. Samples are then lysed with 1 ml of 1× Pharmingen Lyse Buffer (BD Pharmingen #555899), and plates are centrifuged at 1800 rpm for 5 minutes. Supernatants are removed via suction and the remaining pellets are lysed again with another 1 ml of 1× Pharmingen Lyse Buffer, and plates are spun down as before. Supernatants are aspirated and remaining pellets are washed in FACs buffer (PBS+1% FBS). After a final spin, the supernantants are removed and pellets are resuspended in 180 μl of FACs buffer. Samples are transferred to a 96 well plate suitable to be run on the HTS 96 well system on the BD LSR II flow cytometer.
# Using appropriate excitation and emission wavelengths for the fluorophores used, data are acquired and percent positive cell values are obtained using Cell Quest Software. Results are initially analyzed by FACS analysis software (Flow Jo). […] The IC50 values are calculated using XLfit software version 3, equation 201.
row,Compound,IC50
1,"Cn1ccc(Nc2cc(-c3cccc(-n4ncc5cc(C(C)(C)C)cc(F)c5c4=O)c3CO)cn(C)c2=O)nc1=O [Example I-23, 6-tert-Butyl-8-fluoro-2-{2-hydroxymethyl-3-[1-methyl-5-(1-methyl-2-oxo-1,2-dihydro-pyrimidin-4-ylamino)-6-oxo-1,6-dihydro-pyridin-3-yl]-phenyl}-2H-phthalazin-1-one]",392 nM
2,"Cn1cc(-c2cccc(-n3ncc4cc(C(C)(C)C)cc(F)c4c3=O)c2CO)cc(Nc2ccc(CO)cn2)c1=O [Example I-26, 6-tert-Butyl-8-fluoro-2-{2-hydroxymethyl-3-[5-(5-hydroxymethyl-pyridin-2-ylamino)-1-methyl-6-oxo-1,6-dihydro-pyridin-3-yl]-phenyl}-2H-phthalazin-1-one]",91 nM
3,"Cc1c(-c2cc(Nc3ccc(N4CCN(C)CC4)cn3)c(=O)n(C)c2)cccc1-n1ncc2cc(C(C)(C)C)cc(F)c2c1=O [Example I-28, 6-tert-Butyl-8-fluoro-2-(2-methyl-3-{1-methyl-5-[5-(4-methyl-piperazin-1-yl)-pyridin-2-ylamino]-6-oxo-1,6-dihydro-pyridin-3-yl}-phenyl)-2H-phthalazin-1-one]",181 nM
4,"CCc1ccc(Nc2cc(-c3cccc(-n4ncc5cc(C(C)(C)C)cc(F)c5c4=O)c3CO)cn(C)c2=O)nc1 [Example I-33, 6-tert-Butyl-2-{3-[5-(5-ethyl-pyridin-2-ylamino)-1-methyl-6-oxo-1,6-dihydro-pyridin-3-yl]-2-hydroxymethyl-phenyl}-8-fluoro-2H-phthalazin-1-one]",218 nM
5,"Cn1cc(-c2cccc(-n3ncc4cc(C(C)(C)C)cc(F)c4c3=O)c2CO)cc(Nc2ccc(C(=O)O)cn2)c1=O [Example I-34, 6-{5-[3-(6-tert-Butyl-8-fluoro-1-oxo-1H-phthalazin-2-yl)-2-hydroxymethyl-phenyl]-1-methyl-2-oxo-1,2-dihydro-pyridin-3-ylamino}-nicotinic acid]",258 nM
6,"CC(O)c1ccc(Nc2cc(-c3cccc(-n4ncc5cc(C(C)(C)C)cc(F)c5c4=O)c3CO)cn(C)c2=O)nc1 (stereo not drawn) [Example I-36, 6-tert-Butyl-8-fluoro-2-(3-{5-[5-(1-hydroxy-ethyl)-pyridin-2-ylamino]-1-methyl-6-oxo-1,6-dihydro-pyridin-3-yl}-2-hydroxymethyl-phenyl)-2H-phthalazin-1-one]",59 nM
7,"CCn1ccc(Nc2cc(-c3cccc(-n4ncc5cc(C(C)(C)C)cc(F)c5c4=O)c3CO)cn(C)c2=O)nc1=O [Example I-37, 6-tert-Butyl-2-{3-[5-(1-ethyl-2-oxo-1,2-dihydro-pyrimidin-4-ylamino)-1-methyl-6-oxo-1,6-dihydro-pyridin-3-yl]-2-hydroxymethyl-phenyl}-8-fluoro-2H-phthalazin-1-one]",219 nM
8,"CC(C)n1ccc(Nc2cc(-c3cccc(-n4ncc5cc(C(C)(C)C)cc(F)c5c4=O)c3CO)cn(C)c2=O)nc1=O [Example I-38, 6-tert-Butyl-8-fluoro-2-{2-hydroxymethyl-3-[5-(1-isopropyl-2-oxo-1,2-dihydro-pyrimidin-4-ylamino)-1-methyl-6-oxo-1,6-dihydro-pyridin-3-yl]-phenyl}-2H-phthalazin-1-one]",67 nM

# Now those with a lower IC50, led by results:
row,IC50,Compound
1,41 nM,"Cn1cc(-c2cccc(-n3ncc4cc(C(C)(C)C)cc(F)c4c3=O)c2CO)cc(Nc2ccc(C(C)(C)C(=O)O)cn2)c1=O [Example I-20, 2-(6-{5-[3-(6-tert-Butyl-8-fluoro-1-oxo-1H-phthalazin-2-yl)-2-hydroxymethyl-phenyl]-1-methyl-2-oxo-1,2-dihydro-pyridin-3-ylamino}-pyridin-3-yl)-2-methyl-propionic acid]"
2,34 nM,"CNC(=O)C(C)(C)c1ccc(Nc2cc(-c3cccc(-n4ncc5cc(C(C)(C)C)cc(F)c5c4=O)c3CO)cn(C)c2=O)nc1 [Example I-32, 2-(6-{5-[3-(6-tert-Butyl-8-fluoro-1-oxo-1H-phthalazin-2-yl)-2-hydroxymethyl-phenyl]-1-methyl-2-oxo-1,2-dihydro-pyridin-3-ylamino}-pyridin-3-yl)-N-methyl-isobutyramide]"
3,30 nM,"CCOCCNC(=O)C(C)(C)c1ccc(Nc2cc(-c3cccc(-n4ncc5cc(C(C)(C)C)cc(F)c5c4=O)c3CO)cn(C)c2=O)nc1 [Example I-29, 2-(6-{5-[3-(6-tert-Butyl-8-fluoro-1-oxo-1H-phthalazin-2-yl)-2-hydroxymethyl-phenyl]-1-methyl-2-oxo-1,2-dihydro-pyridin-3-ylamino}-pyridin-3-yl)-N-(2-ethoxy-ethyl)-isobutyramide]"
4,28 nM,"Cn1cc(-c2cccc(-n3ncc4cc(C(C)(C)C)cc(F)c4c3=O)c2CO)cc(Nc2ccc(C(C)(C)N)cn2)c1=O [Example I-35, 2-(3-{5-[5-(1-Amino-1-methyl-ethyl)-pyridin-2-ylamino]-1-methyl-6-oxo-1,6-dihydro-pyridin-3-yl}-2-hydroxymethyl-phenyl)-6-tert-butyl-8-fluoro-2H-phthalazin-1-one]"
5,14 nM,Cn1cc(-c2cccc(-n3ncc4cc(C(C)(C)C)cc(F)c4c3=O)c2CO)cc(Nc2ccc(OCCO)cn2)c1=O [Example I-19]
6,14 nM,"CN(C)C(=O)C(C)(C)c1ccc(Nc2cc(-c3cccc(-n4ncc5cc(C(C)(C)C)cc(F)c5c4=O)c3CO)cn(C)c2=O)nc1 [Example I-22, 2-(6-{5-[3-(6-tert-Butyl-8-fluoro-1-oxo-1H-phthalazin-2-yl)-2-hydroxymethyl-phenyl]-1-methyl-2-oxo-1,2-dihydro-pyridin-3-ylamino}-pyridin-3-yl)-N,N-dimethyl-isobutyramide]"
7,11 nM,"Cn1cc(-c2cccc(-n3ncc4cc(C(C)(C)C)cc(F)c4c3=O)c2CO)cc(Nc2ccc(S(C)(=O)=O)cn2)c1=O [Example I-18, 6-tert-Butyl-8-fluoro-2-{2-hydroxymethyl-3-[5-(5-methanesulfonyl-pyridin-2-ylamino)-1-methyl-6-oxo-1,6-dihydro-pyridin-3-yl]-phenyl}-2H-phthalazin-1-one]"
8,11 nM,"Cn1cc(-c2cccc(-n3ncc4cc(C(C)(C)C)cc(F)c4c3=O)c2CO)cc(Nc2ccc(C(C)(C)C(=O)N3CCOCC3)cn2)c1=O [Example I-21, 6-tert-Butyl-2-(3-{5-[5-(1,1-dimethyl-2-morpholin-4-yl-2-oxo-ethyl)-pyridin-2-ylamino]-1-methyl-6-oxo-1,6-dihydro-pyridin-3-yl}-2-hydroxymethyl-phenyl)-8-fluoro-2H-phthalazin-1-one]"
9,10 nM,"CN1CC(Oc2ccc(Nc3cc(-c4cccc(-n5ncc6cc(C(C)(C)C)cc(F)c6c5=O)c4CO)cn(C)c3=O)nc2)C1 [Example I-30, 6-tert-Butyl-8-fluoro-2-(2-hydroxymethyl-3-{1-methyl-5-[5-(1-methyl-azetidin-3-yloxy)-pyridin-2-ylamino]-6-oxo-1,6-dihydro-pyridin-3-yl}-phenyl)-2H-phthalazin-1-one]"
10,8 nM,"COCCNCc1ccc(Nc2cc(-c3cccc(-n4ncc5cc(C(C)(C)C)cc(F)c5c4=O)c3CO)cn(C)c2=O)nc1 [Example I-39, 6-tert-Butyl-8-fluoro-2-[2-hydroxymethyl-3-(5-{5-[(2-methoxy-ethylamino)-methyl]-pyridin-2-ylamino}-1-methyl-6-oxo-1,6-dihydro-pyridin-3-yl)-phenyl]-2H-phthalazin-1-one]"
